Measurements taken from the NIST ThermoML archive (doi:10.1021/acs.jced.7b00601).
± gives the expanded uncertainty stated by the source.

Legend:
[1] = Crystal; DTA
[2] = Molar enthalpy of transition or fusion; conditions: Crystal; DSC

Normal melting temperature [1]: 162.00 ± 2.9 °C
Molar enthalpy of transition or fusion [2]: 8.35 ± 0.232 kcal/mol
SMILES: COc1c(N2CCNC(C)C2)c(F)cc2c(=O)c(C(=O)O)cn(C3CC3)c12 (configuration not stated) [gatifloxacin]
